In patent US9895340B2, “Fluorinated benzofuran derivatives” (SciFluor Life Sciences, Inc., priority 2012, dated 2018):
Read-outs that look alike come from different tables or passages of the source.

Key:
Format in all cases: cell-based
[1] = molecular target: T1, hKvLQT1/hminK potassium channels (Homo sapiens, UniProt P51787); assay: hKvLQT1/hminK potassium channel automated patch clamp; settings: CHO cells, read-out: KvLQT ion channel inhibition
T1 construct: expressed in transfected cells; host or cells: CHO cells
Method: (§1) Compounds of the present invention were tested for their anti-arrhythmic activity in a series of in vitro cardiac ion channel assays using cloned human channels expressed in CHO cells or HEK293 cells: • 1. Cloned L-type calcium channels (hCav1.2, encoded by the human CACNA1C gene and coexpressed with the (32 subunit, encoded by the human CACNB2 gene and the α2δ1 subunit encoded by the human CACNA2D1 gene, in CHO cells), responsible for Ica,L, high threshold calcium current. • 2. Cloned hERG potassium channels (encoded by the KCNH2 gene and expressed in human embryonic kidney, HEK293, cells) responsible for IKr. • 3. Cloned hKir2.1 potassium channels (encoded by the human KCNJ2 gene and expressed in HEK293 cells), responsible for IKI, inwardly rectifying potassium current. • 4. Cloned hKvLQT1/hminK potassium channels (encoded by the human KCNQ1 and KCNE1 genes and coexpressed in CHO cells), responsible for IKs, slow delayed rectifier potassium current. • 5. Cloned hKv1.5 potassium channels (encoded by the human KCNA5 gene and expressed in CHO cells), responsible for IKur, ultra-rapid delayed rectifier potassium current. • 6. Cloned hNav1.5 sodium channels (SCN5A gene, expressed in CHO cells). • 7. Cloned hKir3.1/hKir3.4 potassium channels (expressed by the human KCNJ3 and KCNJ5 genes and co-expressed in HEK293 cells) responsible for IACh, inwardly rectifying potassium current.
(§2) One concentration of a compound of the present invention was applied for a […] interval via disposable polyethylene micropipette tips to naïve cells (n≧2, where n=the number cells/concentration). Each solution exchange, performed in quadruplicate, consisted of aspiration and replacement of 45 μL volume of the extracellular well of the Sealchip16. Duration of exposure to the test compound was three minutes. For the hKir3.1/hKir3.4 assay, two concentrations of a compound of the present invention were used and the duration of exposure was 3 minutes.
In preparation for an automated patch clamp procedure recording session, intracellular solution was loaded into the intracellular compartments of the Sealchip16 or Qplate planar electrode. […] After establishment of a whole-cell configuration, membrane currents were recorded using dual-channel patch clamp amplifiers in the PatchXpress® or Qpatch HT® system. […]
Onset and steady state block of hKvLQT1/hminK current was measured using a pulse pattern with fixed amplitudes (depolarization: +40 mV for 2 s; repolarization: −40 mV for 0.5 s) repeated at 15 s intervals from a holding potential of −80 mV. Current amplitude was measured at the end of the step to +40 mV. […] Leakage current was measured after chromanol 293B addition and subtracted from the total membrane current record.

hCav1.2/β2/α2δ channels = molecular target: T2, hCav1.2/β2/α2δ channels (Homo sapiens, UniProt Q13936); assay: hCav1.2 L-type calcium channel automated patch clamp; settings: CHO cells, read-out: Cav1.2 ion channel inhibition
T2 construct: expressed in transfected cells; host or cells: CHO cells
Method: as §1, §2
(§3) In preparation for an automated patch clamp procedure recording session, intracellular solution was loaded into the intracellular compartments of the Sealchip16 or Qplate planar electrode. Cell suspension was pipetted into the extracellular compartments of the Sealchip16 or Qplate planar electrode. After establishment of a whole-cell configuration, membrane currents were recorded using dual-channel patch clamp amplifiers in the PatchXpress® or Qpatch HT® system. Before digitization, the current records were low-pass filtered at one-fifth of the sampling frequency. […]
Onset and steady state block of hCav1.2/β2/α2δ channels were measured using a stimulus voltage pattern consisting of a depolarizing test pulse (duration, 200 ms; amplitude, 10 mV) at 10 s intervals from a −80 mV holding potential. Peak current was measured during the step to 10 mV. […]

[2] = molecular target: T3, hKir2.1 potassium channels (Homo sapiens, UniProt P63252); assay: hKir2.1 potassium channel automated patch clamp; settings: HEK293 cells, read-out: Kir2.1 ion channel inhibition
T3 construct: expressed in transfected cells; host or cells: HEK293 cells
T3 sequence (P63252 1-427): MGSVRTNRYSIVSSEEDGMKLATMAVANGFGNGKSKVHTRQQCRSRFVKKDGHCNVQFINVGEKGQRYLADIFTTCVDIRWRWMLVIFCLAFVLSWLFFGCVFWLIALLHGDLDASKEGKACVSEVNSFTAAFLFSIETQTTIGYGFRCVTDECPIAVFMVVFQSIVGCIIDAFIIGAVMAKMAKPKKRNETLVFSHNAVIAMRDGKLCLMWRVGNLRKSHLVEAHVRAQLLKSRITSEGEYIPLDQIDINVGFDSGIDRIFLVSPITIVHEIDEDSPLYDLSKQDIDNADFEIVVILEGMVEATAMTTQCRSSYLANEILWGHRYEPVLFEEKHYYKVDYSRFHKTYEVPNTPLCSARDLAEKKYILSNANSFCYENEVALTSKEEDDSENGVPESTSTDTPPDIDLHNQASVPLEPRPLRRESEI
Method: as §1, §2
In preparation for an automated patch clamp procedure recording session, intracellular solution was loaded into the intracellular compartments of the Sealchip16 or Qplate planar electrode. Cell suspension was pipetted into the extracellular compartments of the Sealchip16 or Qplate planar electrode. After establishment of a whole-cell configuration, membrane currents were recorded using dual-channel patch clamp amplifiers in the PatchXpress® or Qpatch HT® system. […]
Onset and steady state block of hKir2.1 current was measured using a pulse pattern with fixed amplitudes (hyperpolarization: −110 mV amplitude, 300 ms duration) repeated at 10 s intervals from a holding potential of −70 mV. Current amplitude was measured at the end of the step to −110 mV.

[3] = molecular target: T4, hKir3.1/hKir3.4 potassium channels (Homo sapiens, UniProt P48544+P48549); assay: hKir3.1/hKir3.4 potassium channel automated patch clamp; settings: HEK293 cells; for inhibition at 1 µM: read-out: K(ach) @ 1 μM ion channel inhibition; for inhibition at 10 µM: read-out: K(ach) ion channel inhibition
T4 construct: expressed in transfected cells; host or cells: HEK293 cells
T4 sequence (P48549 1-501): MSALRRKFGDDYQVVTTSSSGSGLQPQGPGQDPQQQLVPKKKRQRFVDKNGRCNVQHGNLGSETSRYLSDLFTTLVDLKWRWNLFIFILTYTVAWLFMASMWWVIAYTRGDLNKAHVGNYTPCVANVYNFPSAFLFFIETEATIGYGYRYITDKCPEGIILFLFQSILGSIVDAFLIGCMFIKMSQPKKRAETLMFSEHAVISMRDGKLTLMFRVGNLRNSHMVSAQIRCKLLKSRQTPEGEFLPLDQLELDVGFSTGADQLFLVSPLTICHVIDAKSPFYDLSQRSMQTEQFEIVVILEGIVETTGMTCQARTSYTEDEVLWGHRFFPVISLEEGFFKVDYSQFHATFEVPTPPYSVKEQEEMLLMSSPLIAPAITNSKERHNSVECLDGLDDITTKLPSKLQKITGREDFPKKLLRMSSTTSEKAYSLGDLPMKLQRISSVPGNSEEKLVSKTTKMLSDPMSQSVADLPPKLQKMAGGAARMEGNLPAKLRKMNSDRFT
T4 sequence (P48544 1-419): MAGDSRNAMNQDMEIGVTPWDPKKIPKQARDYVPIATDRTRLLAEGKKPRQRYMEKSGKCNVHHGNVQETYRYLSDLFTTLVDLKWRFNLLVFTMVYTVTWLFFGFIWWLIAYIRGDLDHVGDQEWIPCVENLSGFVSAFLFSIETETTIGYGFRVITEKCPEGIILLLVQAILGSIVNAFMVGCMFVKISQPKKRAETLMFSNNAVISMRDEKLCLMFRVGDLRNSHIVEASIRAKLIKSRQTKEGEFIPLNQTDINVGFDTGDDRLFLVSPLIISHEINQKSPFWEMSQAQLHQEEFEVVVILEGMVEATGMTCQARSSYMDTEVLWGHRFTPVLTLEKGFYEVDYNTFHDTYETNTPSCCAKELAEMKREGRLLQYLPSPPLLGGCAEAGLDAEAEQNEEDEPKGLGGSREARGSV
Method: as §1, §2
(§4) In preparation for an automated patch clamp procedure recording session, intracellular solution was loaded into the intracellular compartments of the Sealchip16 or Qplate planar electrode. Cell suspension was pipetted into the extracellular compartments of the Sealchip16 or Qplate planar electrode. After establishment of a whole-cell configuration, membrane currents were recorded using dual-channel patch clamp amplifiers in the PatchXpress® or Qpatch HT® system. Before digitization, the current records were low-pass filtered at one-fifth of the sampling frequency.
(§5) Valid whole-call recordings met the following criteria: • 1. Membrane resistance (Rm)≧200 MΩ • 2. Leak current≦25% channel current. hCav1.2 Test Procedure
The in vitro effects of the compounds of the present invention were evaluated at room temperature using the PatchXpress (Model 7000A, Molecular Devices, Union City, Calif.), an automated parallel patch clamp system.

[4] = molecular target: T5, hERG potassium channel (KCNH2, IKr) (Homo sapiens, UniProt Q12809); assay: hERG potassium channel automated patch clamp; settings: HEK293 cells expressing cloned hERG potassium channels, read-out: hERG ion channel inhibition
T5 construct: expressed in transfected cells; host or cells: HEK293 cells
Method: One concentration of a compound of the present invention was applied for a five-minute interval via disposable polyethylene micropipette tips to naïve cells (n≧2, where n=the number cells/concentration). Each solution exchange, performed in quadruplicate, consisted of aspiration and replacement of 45 μL volume of the extracellular well of the Sealchip16. Duration of exposure to the test compound was three minutes.
Onset and block of hERG current was measured using a stimulus voltage pattern consisting of a 500 ms prepulse to −40 mV (leakage subtraction), a 2-second activating pulse to +40 mV, followed by a 2-second test pulse to −40 mV. Leakage current was calculated from the current amplitude evoked by the prepulse and subtracted from the total membrane current record.

hNav1.5 sodium channels = molecular target: T6, hNav1.5 sodium channels (Homo sapiens, UniProt Q14524); assay: hNav1.5 sodium channel automated patch clamp; settings: CHO cells
T6 construct: expressed in transfected cells; host or cells: CHO cells
Method: as §1, §2, §4, §5
Onset and steady-state block of hNav1.5 current was measured using double pulse pattern consisting of a series of two depolarizing test pulses to −15 mV. From a holding potential of −80 mV, an initial hyperpolarizing conditioning pre-pulse (−120 mV amplitude, 200 ms duration,) was followed immediately by the first depolarizing test pulse to −15 mV (200 ms duration). This was followed by a hyperpolarizing conditioning inter-pulse to −80 mV (200 ms duration) and then a second depolarizing test pulse to −15 mV for 20 ms. The pulse pattern was repeated at 10 s intervals and peak current amplitudes at both test pulses were measured.

[5] = molecular target: T7, hKv1.5 potassium channels (Homo sapiens, UniProt P22460); assay: hKv1.5 potassium channel automated patch clamp; settings: CHO cells, read-out: Kv1.5 ion channel inhibition
T7 construct: expressed in transfected cells; host or cells: CHO cells
Method: as §1, §2, §3
Onset and steady state block of hKv1.5 current was measured using a pulse pattern with fixed amplitudes (depolarization: +20 mV amplitude, 300 ms duration) repeated at 10 s intervals from a holding potential of −80 mV. Current amplitude was measured at the end of the step to +20 mV.

[6] = phasic block, read-out: Nav1.5 phasic ion channel inhibition
[7] = tonic block, read-out: Nav1.5 tonic ion channel inhibition

T7 sequence (P22460 whole entry): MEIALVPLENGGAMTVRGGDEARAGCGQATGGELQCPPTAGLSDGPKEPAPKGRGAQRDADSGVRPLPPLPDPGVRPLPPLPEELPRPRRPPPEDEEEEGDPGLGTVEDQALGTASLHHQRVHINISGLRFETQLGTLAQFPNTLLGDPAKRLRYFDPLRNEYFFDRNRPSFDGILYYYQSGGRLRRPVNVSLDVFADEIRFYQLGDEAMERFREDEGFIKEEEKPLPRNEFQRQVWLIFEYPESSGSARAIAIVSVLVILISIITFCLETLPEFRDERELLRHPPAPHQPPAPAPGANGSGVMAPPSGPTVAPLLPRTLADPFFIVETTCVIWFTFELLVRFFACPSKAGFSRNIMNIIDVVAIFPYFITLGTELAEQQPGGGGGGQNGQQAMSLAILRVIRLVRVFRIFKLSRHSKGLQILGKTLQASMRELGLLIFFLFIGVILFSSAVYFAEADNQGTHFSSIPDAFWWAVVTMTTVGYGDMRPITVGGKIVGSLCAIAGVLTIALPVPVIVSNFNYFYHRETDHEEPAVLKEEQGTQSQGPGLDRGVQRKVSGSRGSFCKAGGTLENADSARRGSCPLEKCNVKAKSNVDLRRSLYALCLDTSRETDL
T2 sequence (Q13936 whole entry): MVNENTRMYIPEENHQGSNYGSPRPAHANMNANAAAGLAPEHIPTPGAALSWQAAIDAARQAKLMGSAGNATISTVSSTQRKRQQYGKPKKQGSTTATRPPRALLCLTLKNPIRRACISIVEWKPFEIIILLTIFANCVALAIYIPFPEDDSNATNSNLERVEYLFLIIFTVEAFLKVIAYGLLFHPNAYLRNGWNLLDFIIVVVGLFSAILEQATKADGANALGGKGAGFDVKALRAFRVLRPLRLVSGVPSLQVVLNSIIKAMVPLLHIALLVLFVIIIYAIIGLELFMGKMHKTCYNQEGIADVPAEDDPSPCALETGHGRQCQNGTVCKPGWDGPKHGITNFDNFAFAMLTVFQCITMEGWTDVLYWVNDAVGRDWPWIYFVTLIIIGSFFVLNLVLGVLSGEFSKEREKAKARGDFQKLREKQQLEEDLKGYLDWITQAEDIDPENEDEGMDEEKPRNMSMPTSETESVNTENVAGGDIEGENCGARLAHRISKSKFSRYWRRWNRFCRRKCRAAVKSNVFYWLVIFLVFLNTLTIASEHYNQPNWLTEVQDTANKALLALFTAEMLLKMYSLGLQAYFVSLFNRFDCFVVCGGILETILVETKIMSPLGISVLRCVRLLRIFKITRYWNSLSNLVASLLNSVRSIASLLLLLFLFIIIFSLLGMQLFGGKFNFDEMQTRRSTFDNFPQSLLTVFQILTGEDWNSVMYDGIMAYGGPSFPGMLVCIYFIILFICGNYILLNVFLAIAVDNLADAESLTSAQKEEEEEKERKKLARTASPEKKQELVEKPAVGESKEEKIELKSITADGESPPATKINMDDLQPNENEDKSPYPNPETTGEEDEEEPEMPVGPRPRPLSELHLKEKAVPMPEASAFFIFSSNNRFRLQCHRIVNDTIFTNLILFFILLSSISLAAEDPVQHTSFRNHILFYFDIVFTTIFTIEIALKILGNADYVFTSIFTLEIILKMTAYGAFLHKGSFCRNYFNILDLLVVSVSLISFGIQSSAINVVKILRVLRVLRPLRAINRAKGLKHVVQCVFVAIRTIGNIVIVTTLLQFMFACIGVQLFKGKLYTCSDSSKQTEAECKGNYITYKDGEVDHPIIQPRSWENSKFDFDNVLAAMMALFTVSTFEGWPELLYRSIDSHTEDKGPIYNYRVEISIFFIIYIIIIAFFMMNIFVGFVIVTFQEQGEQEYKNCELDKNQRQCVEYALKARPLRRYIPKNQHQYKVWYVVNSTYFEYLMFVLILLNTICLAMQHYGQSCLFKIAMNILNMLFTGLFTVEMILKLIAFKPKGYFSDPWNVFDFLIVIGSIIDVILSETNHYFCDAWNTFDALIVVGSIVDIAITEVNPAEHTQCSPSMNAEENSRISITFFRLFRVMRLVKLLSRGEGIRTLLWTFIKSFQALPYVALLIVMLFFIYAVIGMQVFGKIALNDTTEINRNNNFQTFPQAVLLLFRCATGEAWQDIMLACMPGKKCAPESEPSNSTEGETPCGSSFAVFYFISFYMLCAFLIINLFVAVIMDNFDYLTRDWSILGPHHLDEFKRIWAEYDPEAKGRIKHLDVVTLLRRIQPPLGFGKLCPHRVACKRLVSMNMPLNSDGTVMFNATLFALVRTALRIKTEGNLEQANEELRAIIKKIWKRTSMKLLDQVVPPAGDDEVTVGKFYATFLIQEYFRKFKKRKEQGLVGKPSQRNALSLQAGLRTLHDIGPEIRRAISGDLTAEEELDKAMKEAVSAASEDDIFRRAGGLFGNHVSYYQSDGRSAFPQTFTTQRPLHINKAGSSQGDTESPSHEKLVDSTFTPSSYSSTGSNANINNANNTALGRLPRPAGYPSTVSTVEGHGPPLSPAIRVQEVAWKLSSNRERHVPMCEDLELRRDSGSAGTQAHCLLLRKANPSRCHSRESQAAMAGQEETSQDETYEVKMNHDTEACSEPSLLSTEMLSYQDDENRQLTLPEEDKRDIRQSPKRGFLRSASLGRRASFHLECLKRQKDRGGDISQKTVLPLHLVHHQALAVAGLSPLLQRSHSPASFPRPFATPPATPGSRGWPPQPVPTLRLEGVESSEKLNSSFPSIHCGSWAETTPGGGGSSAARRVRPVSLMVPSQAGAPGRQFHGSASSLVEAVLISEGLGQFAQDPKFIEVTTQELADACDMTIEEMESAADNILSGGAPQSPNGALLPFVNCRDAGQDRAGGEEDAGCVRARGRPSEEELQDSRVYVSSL
T2 sequence (Q08289 whole entry partner): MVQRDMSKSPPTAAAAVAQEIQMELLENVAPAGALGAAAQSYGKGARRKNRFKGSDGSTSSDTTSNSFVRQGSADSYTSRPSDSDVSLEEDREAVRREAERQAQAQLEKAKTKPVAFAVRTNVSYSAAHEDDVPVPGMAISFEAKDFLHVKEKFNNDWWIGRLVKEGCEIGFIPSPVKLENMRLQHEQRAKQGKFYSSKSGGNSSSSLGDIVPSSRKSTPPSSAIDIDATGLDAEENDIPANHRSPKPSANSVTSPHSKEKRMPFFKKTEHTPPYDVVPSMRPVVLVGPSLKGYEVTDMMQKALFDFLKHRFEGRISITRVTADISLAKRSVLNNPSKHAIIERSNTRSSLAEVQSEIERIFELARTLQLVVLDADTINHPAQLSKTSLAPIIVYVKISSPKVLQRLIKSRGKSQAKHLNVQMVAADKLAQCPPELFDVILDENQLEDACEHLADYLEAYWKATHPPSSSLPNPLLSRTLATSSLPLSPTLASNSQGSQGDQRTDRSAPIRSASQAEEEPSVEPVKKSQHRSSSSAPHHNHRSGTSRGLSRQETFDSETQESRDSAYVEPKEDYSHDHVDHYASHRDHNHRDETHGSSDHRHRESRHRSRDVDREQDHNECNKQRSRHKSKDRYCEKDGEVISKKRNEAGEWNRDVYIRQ
T2 sequence (P54289 25-956 partner limits assumed): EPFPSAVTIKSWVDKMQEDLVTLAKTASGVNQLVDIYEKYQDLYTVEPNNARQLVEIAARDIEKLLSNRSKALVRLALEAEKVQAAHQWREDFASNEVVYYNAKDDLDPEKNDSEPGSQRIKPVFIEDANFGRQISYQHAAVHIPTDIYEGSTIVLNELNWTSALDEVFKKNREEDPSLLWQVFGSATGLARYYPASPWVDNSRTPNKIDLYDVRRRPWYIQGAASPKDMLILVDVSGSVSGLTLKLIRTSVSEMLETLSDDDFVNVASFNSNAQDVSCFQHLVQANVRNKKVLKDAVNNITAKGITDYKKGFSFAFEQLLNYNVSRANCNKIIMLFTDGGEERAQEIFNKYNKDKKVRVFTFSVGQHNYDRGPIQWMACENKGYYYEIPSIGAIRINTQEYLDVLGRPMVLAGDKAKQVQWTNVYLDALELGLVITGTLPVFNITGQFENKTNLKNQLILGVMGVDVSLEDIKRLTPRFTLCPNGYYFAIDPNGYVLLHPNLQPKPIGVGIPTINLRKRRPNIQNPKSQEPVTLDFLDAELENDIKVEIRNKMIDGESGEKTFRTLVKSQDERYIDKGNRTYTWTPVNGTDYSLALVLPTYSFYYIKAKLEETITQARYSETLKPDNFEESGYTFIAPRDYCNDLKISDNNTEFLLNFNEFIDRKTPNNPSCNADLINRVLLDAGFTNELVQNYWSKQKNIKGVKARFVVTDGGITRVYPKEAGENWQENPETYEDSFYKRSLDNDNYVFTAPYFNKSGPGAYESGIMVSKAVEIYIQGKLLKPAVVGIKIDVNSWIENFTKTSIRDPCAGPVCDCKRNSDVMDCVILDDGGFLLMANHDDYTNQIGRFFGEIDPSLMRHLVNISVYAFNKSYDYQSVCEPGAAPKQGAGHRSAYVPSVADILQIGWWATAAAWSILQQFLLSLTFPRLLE
T2 sequence (P54289 957-1103 partner limits assumed): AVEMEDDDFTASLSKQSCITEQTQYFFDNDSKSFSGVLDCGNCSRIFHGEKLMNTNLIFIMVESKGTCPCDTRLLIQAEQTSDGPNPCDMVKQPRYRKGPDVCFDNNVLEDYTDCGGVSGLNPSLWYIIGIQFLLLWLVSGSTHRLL

| Compound | inhibition at 10 µM [1] [%] | inhibition at 10 µM (hCav1.2/β2/α2δ channels) [%] | inhibition at 10 µM [2] [%] | inhibition at 1 µM [3] [%] | inhibition at 10 µM [3] [%] | inhibition at 3 min, 10 µM [4] [%] | inhibition at 10 µM (hNav1.5 sodium channels; [6]) [%] | inhibition at 10 µM (hNav1.5 sodium channels; [7]) [%] | inhibition at 10 µM [5] [%] |
| --- | --- | --- | --- | --- | --- | --- | --- | --- | --- |
| CCCCc1oc2ccccc2c1C(=O)c1cc(I)c(OCCN(CC)CC)c(C(F)(F)F)c1 [Compound 2, (2-butylbenzofuran-3-yl)(4-(2-(diethylamino)ethoxy)-3-iodo-5-(trifluoromethyl)phenyl) methanone] | 2.5 | 81 | 2.7 | 1.4 | 4.6 | 75 | 44 | 23 | 21 |
| CCCCc1oc2ccccc2c1C(=O)c1ccc(OCCN(CC)CC)c(C(F)(F)F)c1 [Compound 3, (2-butylbenzofuran-3-yl)(4-(2-(diethylamino)ethoxy)-3-(trifluoromethyl)phenyl)methanone] | 8.4 | 2 | 9.7 | 2.1 | 11 | 74 | 86 | 48 | 25 |
| CCCCc1oc2ccccc2c1C(=O)c1cc(I)c(OCCN(CC)CC)c(I)c1 [Amiodarone, 2-n-butyl 3-[4-(2-diethylaminoethoxy) 3,5-diiodobenzoyl] benzofuran, reference compound] | -0.6 | 7.7 | 0.9 | 4.5 | 23 | – | 44 | 6.8 | 0.7 |
| CCCCc1oc2ccccc2c1C(=O)c1cc(C(F)(F)F)c(OCCN(CC)CC)c(C(F)(F)F)c1 [Compound 1, (2-butylbenzofuran-3-yl)(4-(2-(diethylamino)ethoxy)-3,5-bis(trifluoromethyl)phenyl)methanone] | 49 | 101 | 0.3 | 16 | 49 | 55 | 26 | 11.5 | 54 |
